# Measurements published in ChEMBL document CHEMBL3885881, “DrugMatrix”.
# Species on record: Rattus norvegicus
# Experiment: DrugMatrix - Regimen: Daily Repeat
# Format: toxicity, organism-based, Sprague-Dawley
# Parameters: regimen Daily Repeat, gender Male, age 6-8 weeks
# Conditions: in vivo, po, 200 mg/kg, route oral GAVAGE, dose level Low, […]; for ABSOLUTE BASOPHIL / ABSOLUTE EOSINOPHIL / ABSOLUTE LYMPHOCYTE / ABSOLUTE MONOCYTE / ABSOLUTE SEGMENTED NEUTROPHIL / BASOPHIL / EOSINOPHIL / ERYTHROCYTE COUNT / HEMATOCRIT / HEMOGLOBIN / LEUKOCYTE COUNT / LYMPHOCYTE / MEAN CORPUSCULAR HEMOGLOBIN / MEAN CORPUSCULAR HEMOGLOBIN CONCENTRATION / MEAN CORPUSCULAR VOLUME / MONOCYTE / NEUTROPHIL / NUCLEATED RED BLOOD CELLS / PLATELET COUNT: tissue Blood
# [1] = 72 h, tissue Plasma, time 3 day
# [2] = 120 h, tissue Plasma, time 5 day
compound,measurement,setting,value
CCOc1ccc(NC(C)=O)cc1 [PHENACETIN],ABSOLUTE BASOPHIL,"72 h, time 3 day",0 CELLS/uL
same,ABSOLUTE EOSINOPHIL,"72 h, time 3 day",0 CELLS/uL
same,ABSOLUTE LYMPHOCYTE,"72 h, time 3 day",12319.33 CELLS/uL
same,ABSOLUTE MONOCYTE,"72 h, time 3 day",297 CELLS/uL
same,ABSOLUTE SEGMENTED NEUTROPHIL,"72 h, time 3 day",1617 CELLS/uL
same,BASOPHIL,"72 h, time 3 day",0%
same,EOSINOPHIL,"72 h, time 3 day",0%
same,ERYTHROCYTE COUNT,"72 h, time 3 day",5.63 x10E6/uL
same,HEMATOCRIT,"72 h, time 3 day",34.9%
same,HEMOGLOBIN,"72 h, time 3 day",13.6 G/DL
same,LEUKOCYTE COUNT,"72 h, time 3 day",14.23 x10E3/uL
same,LYMPHOCYTE,"72 h, time 3 day",87%
same,MEAN CORPUSCULAR HEMOGLOBIN,"72 h, time 3 day",24.17 pg
same,MEAN CORPUSCULAR HEMOGLOBIN CONCENTRATION,"72 h, time 3 day",38.97 G/DL
same,MEAN CORPUSCULAR VOLUME,"72 h, time 3 day",62.03 fL
same,MONOCYTE,"72 h, time 3 day",2%
same,NEUTROPHIL,"72 h, time 3 day",11%
same,NUCLEATED RED BLOOD CELLS,"72 h, time 3 day",0 /100WBC
same,PLATELET COUNT,"72 h, time 3 day",1192.67 x10E3/uL
same,ALANINE AMINOTRANSFERASE,[1],73 u/L
same,ALBUMIN,[1],4.07 G/DL
same,ALKALINE PHOSPHATASE,[1],405 u/L
same,ASPARTATE AMINOTRANSFERASE,[1],98.33 u/L
same,BLOOD UREA NITROGEN,[1],12 mg/dL
same,CARBON DIOXIDE,[1],24.67 mmol/L
same,CHLORIDE,[1],101 MEQ/L
same,CHOLESTEROL,[1],65.33 mg/dL
same,CREATININE,[1],0.2 mg/dL
same,GLUCOSE,[1],172 mg/dL
same,LACTATE DEHYDROGENASE,[1],186.33 u/L
same,LIPASE,[1],11.33 u/L
same,PHOSPHORUS,[1],11.6 mg/dL
same,POTASSIUM,[1],6.01 MEQ/L
same,SODIUM,[1],142.63 MEQ/L
same,TOTAL BILIRUBIN,[1],0.2 mg/dL
same,TOTAL PROTEIN,[1],5.6 G/DL
same,URIC ACID,[1],1.77 mg/dL
same,ABSOLUTE BASOPHIL,"120 h, time 5 day",0 CELLS/uL
same,ABSOLUTE EOSINOPHIL,"120 h, time 5 day",0 CELLS/uL
same,ABSOLUTE LYMPHOCYTE,"120 h, time 5 day",14305.33 CELLS/uL
same,ABSOLUTE MONOCYTE,"120 h, time 5 day",246 CELLS/uL
same,ABSOLUTE SEGMENTED NEUTROPHIL,"120 h, time 5 day",1648.67 CELLS/uL
same,BASOPHIL,"120 h, time 5 day",0%
same,EOSINOPHIL,"120 h, time 5 day",0%
same,ERYTHROCYTE COUNT,"120 h, time 5 day",5.8 x10E6/uL
same,HEMATOCRIT,"120 h, time 5 day",35.23%
same,HEMOGLOBIN,"120 h, time 5 day",14.07 G/DL
same,LEUKOCYTE COUNT,"120 h, time 5 day",16.2 x10E3/uL
same,LYMPHOCYTE,"120 h, time 5 day",88%
same,MEAN CORPUSCULAR HEMOGLOBIN,"120 h, time 5 day",24.27 pg
same,MEAN CORPUSCULAR HEMOGLOBIN CONCENTRATION,"120 h, time 5 day",39.93 G/DL
same,MEAN CORPUSCULAR VOLUME,"120 h, time 5 day",60.8 fL
same,MONOCYTE,"120 h, time 5 day",1.67%
same,NEUTROPHIL,"120 h, time 5 day",10.33%
same,NUCLEATED RED BLOOD CELLS,"120 h, time 5 day",0 /100WBC
same,PLATELET COUNT,"120 h, time 5 day",1381.67 x10E3/uL
same,ALANINE AMINOTRANSFERASE,[2],72.67 u/L
same,ALBUMIN,[2],4.13 G/DL
same,ALKALINE PHOSPHATASE,[2],403.33 u/L
same,ASPARTATE AMINOTRANSFERASE,[2],95.33 u/L
same,BLOOD UREA NITROGEN,[2],13.33 mg/dL
same,CARBON DIOXIDE,[2],31.33 mmol/L
same,CHLORIDE,[2],101.33 MEQ/L
same,CHOLESTEROL,[2],68.67 mg/dL
same,CREATINE PHOSPHOKINASE,[2],257.33 u/L
same,CREATININE,[2],0.19 mg/dL
same,GLUCOSE,[2],164.67 mg/dL
same,LACTATE DEHYDROGENASE,[2],323.67 u/L
same,LIPASE,[2],11.67 u/L
same,PHOSPHORUS,[2],10.7 mg/dL
same,POTASSIUM,[2],6.24 MEQ/L
same,SODIUM,[2],143.9 MEQ/L
same,TOTAL BILIRUBIN,[2],0.2 mg/dL
same,TOTAL PROTEIN,[2],5.87 G/DL
same,URIC ACID,[2],1.77 mg/dL
